Measured values as given in patent publication US5686448A (priority 1995, dated 1997).

Tests used:
Vero cells = settings: 25 mg/ml, 48 hours
Description: To determine the toxicity level of the drug, all three cell lines--RK-13, Vero cells, and WISH cells--were used. In the toxicity experiments, the effect of the drug on the uninfected cell for a range of periods of time was determined. Accordingly, cultures were incubated with and without the drug. The time of exposure was from one to seven hours. A comparison was then made between the drug tested cultures and the control cultures. After each period of incubation, the cells were washed and fresh media was added to the cells. The cell viability was then determined by dividing these cultures and having them grow into new cell cultures.
At the end of the incubation period, the cultures were washed twice with sterile PBS (Dulbecco). Fresh medium was added to each of the cultures. The cultures were then incubated for an additional 24 hours.
(§1) Healthy confluent monolayer cell cultures were overlaid with 1 ml of the drug and incubated for 48 hours at 37° C. and then stained. Cell cultures with maintenance media were used as controls.

RK-13 cells = settings: 25 mg/ml, 48 hours
[1] = tested on: Flow 1000 cells (foreskin cells); settings: 25 mg/ml, 48 hours
Description: as §1

HSV-2 (333 strain) = experiment: HMB plaque inhibition in infected Vero cells (Exp. 1M-1P); type: cell-based
Description: In this experiment, 25 mg/ml HMB was tested on Vero cells infected with HSV-2. The virus control cultures, without HMB, had 705 plaque.
The number of plaque on the virus control was about 10 to 12 plaque.
In this experiment, 25 mg/ml, 20 mg/ml, and 15 mg/ml of HMB concentrations were tested on Vero cells infected with HSV-2. […] The experimental flasks had as many, or more, plaque as the control, with an average of 154 plaque for the control and 169 plaque for the HMB-treated flasks.

For `C[N+](C)(C)CCCCCC[N+](C)(C)C` [HMB, hexamethonium bromide], the toxicity (Vero cells) was “no toxicity”, the toxicity (RK-13 cells) was “slight toxicity” and the toxicity [1] was “no toxicity”. The cell layer appearance (HSV-2 (333 strain); Exp. 1M, 25 mg/ml) was “thin cell layer”, the plaque inhibition (HSV-2 (333 strain); Exp. 1N, 20 mg/ml, control about 10 to 12) was “complete inhibition of plaque” and the effect on plaque (HSV-2 (333 strain); Exp. 1O, 15 mg/ml) was “did not have any effect”. For the same compound, the average plaque number (HSV-2 (333 strain); Exp. 1O, 15 mg/ml, control 154) was 169 plaque, the plaque formation (HSV-2 (333 strain); Exp. 1O, 20 mg/ml) was “no plaque” and the toxicity to monolayer (HSV-2 (333 strain); Exp. 1O, 25 mg/ml) was “toxic to the monolayer”. The plaque formation (HSV-2 (333 strain); Exp. 1O, 25 mg/ml, most likely due to toxicity) was “no plaque” and the “inhibition of in vitro replication” value (HSV-2 (333 strain); HMB, Example No. 1 summary) was “inhibit the in vitro replication of HSV-1 and HSV-2”.
